Measured values published in patent EP2951180B1, “2,6,7,8 SUBSTITUTED PURINES AS HDM2 INHIBITORS” (Merck Sharp & Dohme Corp., priority 2013, dated 2014).
Read-outs that look alike come from different tables or passages of the source.

Biological target: T1, HDM2 (Homo sapiens, UniProt Q00987)
T1 construct: Thioredoxin (N); made in house; host or cells: E. coli strain BL21(DE3)Rosetta
Assay: HDM2 FRET assay (inhibition of binding of FITC labeled p53-pocket peptide to HDM2)
Conditions: for IC50: read-out: FRET IC50
Outline: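 TR-FRET with 0.5 nM His-tagged recombinant HDM2, 3 nM FITC-labelled p53 peptide and 0.25 nM Tb-anti-His antibody in PBS, 0.01% BSA, 0.01% Tween-20, 0.1% DMSO. IC50 from em520/em495 ratio over 10-point dilutions, 4-parameter logistic fit.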

[1] = 0.5 nM HDM2 (residues 17 to 125), 3nM peptide, two hour incubation at room temperature

T1 sequence (Q00987 17-125): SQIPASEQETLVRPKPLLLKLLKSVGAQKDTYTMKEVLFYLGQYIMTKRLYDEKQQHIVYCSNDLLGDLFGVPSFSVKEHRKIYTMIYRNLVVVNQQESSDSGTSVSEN

## CC(C)c1ccnc(-c2nc3nc(CNC(=O)C(F)(F)F)nc(N[C@H](C)C4CCC4)c3n2C[C@H]2CC[C@H](C)CC2)c1 [Example 12.10, N-[(6-{[(1R)-1-cyclobutylethyl]amino}-7-[(trans-4-methylcyclohexyl)methyl]-8-[4-(propan-2-yl)pyridin-2-yl]-7H-purin-2-yl)methyl]-2,2,2-trifluoroacetamide]
read-out: % inh. at 1000 nM, at 1000 nM compound
  inhibition at 1 µM: 30%

## C[C@@H](Nc1nc(-c2noc(=O)[nH]2)nc2nc(N3CCCC[C@H]3c3ccccc3)n(C[C@H]3CC[C@H](C)CC3)c12)C1CCC1 [Example 11.15, 3-(6-{[(1R)-1-cyclobutylethyl]amino}-7-[(trans-4-methylcyclohexyl)methyl]-8-[(2S)-2-phenylpiperidin-1-yl]-7H-purin-2-yl)-1,2,4-oxadiazol-5(4H)-one]
Table 11
  IC50: 2.81 nM

## C=C(c1nc2nc(-c3noc(=O)[nH]3)nc(N[C@H](C)C3CCC3)c2n1C[C@H]1CC[C@H](C)CC1)C1CCOCC1 [Example 22.42, 3-(6-{[(1R)-1-cyclobutylethyl]amino}-7-[(trans-4-methylcyclohexyl)methyl] -8-[1-(tetrahydro-2H-pyran-4-yl)ethenyl]-7H-purin-2-yl)-1,2,4-oxadiazol-5(4H)-one]
Table 22
  IC50: 5.07 nM

## C[C@@H](Nc1nc(-c2noc(=O)[nH]2)nc2nc(C3CCCCC3O)n(C[C@H]3CC[C@H](C)CC3)c12)C1CCC1 (stereo partly drawn) [Example 22.46, 3-(6-{[(1R)-1-cyclobutylethyl]amino}-8-(2-hydroxycyclohexyl)-7-[(trans-4-methylcyclohexyl)methyl] -7H-purin-2-yl)-1,2,4-oxadiazol-5(4H)-one]
Table 22
  IC50: 445 nM

## C[C@@H](Nc1nc(-c2noc(=O)[nH]2)nc2nc(C3(c4cccc(F)c4)CC3)n(C[C@H]3CC[C@H](C)CC3)c12)C1CCC1 [Example 22.49, 3-(6-{[(1R)-1-cyclobutylethyl]amino}-8-[1-(3-fluorophenyl)cyclopropyl] -7-[(trans-4-methylcyclohexyl)methyl] -7H-purin-2-yl)-1,2,4-oxadiazol-5(4H)-one]
Table 22
  IC50: 16.9 nM

## C[C@@H](Nc1nc(C(=O)O)nc2nc(N3CCOC4(CCCC4)C3)n(Cc3ccc(C(F)(F)F)cc3)c12)C1CCC1 [Example 9.25, 6-{[(1R)-1-cyclobutylethyl]amino}-8-(6-oxa-9-azaspiro[4.5]dec-9-yl)-7-[4-(trifluoromethyl)benzyl]-7H-purine-2-carboxylic acid]
Table 9
  IC50: 19.4 nM

## C[C@H]1CC[C@H](Cn2c(N3CCOC[C@H]3c3ccccc3)nc3nc(-c4noc(=O)[nH]4)nc(-c4cc(F)cc(Cl)c4)c32)CC1 [Example 16.20, 3-{6-(3-chloro-5-fluorophenyl)-7-[(trans-4-methylcyclohexyl)methyl]-8-[(3R)-3-phenylmorpholin-4-yl]-7H-purin-2-yl}-1,2,4-oxadiazol-5(4H)-one]
[1]
  IC50: 1.21 nM

## Cc1cccc(-c2nc3nc(C(=O)O)nc(N[C@@H](C)c4cccc(Cl)c4)c3n2Cc2ccc(C(F)(F)F)cc2)c1 [Example 6.26, 6-{[(1S)-1-(3-chlorophenyl)ethyl]amino}-8-(3-methylphenyl)-7-[4-(trifluoromethyl)benzyl]-7H-purine-2-carboxylic acid]
Table 6
  IC50: 6970 nM

## C=CCN(c1nc2nc(C(=O)O)nc(N[C@H](C)C3CCC3)c2n1Cc1ccc(C(F)(F)F)cc1)[C@@H](C)c1cccc(F)c1 [Example 10.27, 8-(Allyl((S)-1-(3-fluorophenyl)ethyl)amino)-6-(((R)-1-cyclobutylethyl)amino)-7-(4-(trifluoromethyl)benzyl)-7H-purine-2-carboxylic acid]
Table 10
  IC50: 9.84 nM

## Cc1cccc(-c2nc3nc(C(N)=O)nc(N[C@H](C)C4CCC4)c3n2Cc2ccc(C(F)(F)F)cc2)c1 [Example 12.29, 6-{[(1R)-1-cyclobutylethyl]amino} -8-(3-methylphenyl)-7-[4-(trifluoromethyl)benzyl]-7H-purine-2-carboxamide]
[1]
  IC50: 1410 nM

## C[C@@H](Nc1nc(-c2noc(=O)[nH]2)nc2nc(N3CCOCC3c3ccccc3Cl)n(C[C@H]3CC[C@H](C)CC3)c12)C1CCC1 (single isomer, unassigned) [Example 11.117]
Table 11
  IC50: 3.77 nM

## C[C@@H](Nc1nc(C(=O)O)nc2nc(N3CCCC(c4ccccc4)C3)n(Cc3ccc(C(F)(F)F)cc3)c12)C1CCC1 (stereo partly drawn) [Example 9.41, 6-{[(1R)-1-cyclobutylethyl]amino}-8-(3-phenylpiperidin-1-yl)-7-[4-(trifluoromethyl)benzyl]-7H-purine-2-carboxylic acid]
Table 9
  IC50: 27.3 nM

## C[C@@H](Nc1nc(C(=O)O)nc2nc(N3CCCC3c3ccccc3)n(Cc3ccc(C(F)(F)F)cc3)c12)C1CCC1 (single isomer, unassigned) [Example 9.64]
Table 9
  IC50: 10.2 nM

## CC(C)C(O)c1nc2nc(-c3noc(=O)[nH]3)nc(N[C@H](C)C3CCC3)c2n1C[C@H]1CC[C@H](C)CC1 (stereo partly drawn) [Example 22.45, 3-(6-{[(1R)-1-cyclobutylethyl]amino}-8-(1-hydroxy-2-methylpropyl)-7-[(trans-4-methylcyclohexyl)methyl] -7H-purin-2-yl)-1,2,4-oxadiazol-5(4H)-one]
Table 22
  IC50: 3.66 nM

## Cc1cc(-c2ccccc2)nn1-c1nc2nc(C(=O)O)nc(N[C@H](C)C3CCC3)c2n1Cc1ccc(C(F)(F)F)cc1 [Example 9.61, 6-{[(1R)-1-cyclobutylethyl]amino}-8-(5-methyl-3-phenyl-1H-pyrazol-1-yl)-7-[4-(trifluoromethyl)benzyl]-7H-purine-2-carboxylic acid]
Table 9
  IC50: 300 nM

## C[C@@H](Nc1nc(C(=O)O)nc2nc(-c3ccc4sccc4c3)n(Cc3ccc(C(F)(F)F)cc3)c12)C1CC1 [Example 6.13, 8-(1-benzothiophen-5-yl)-6-{[(1R)-1-cyclopropylethyl]amino}-7-[4-(trifluoromethyl)benzyl]-7H-purine-2-carboxylic acid]
Table 6
  IC50: 16.3 nM

## C[C@@H](Nc1nc([S+](C)[O-])nc2nc(N3CCOC[C@H]3c3ccccc3)n(C[C@H]3CC[C@H](C)CC3)c12)C1CCC1 (single isomer, unassigned) [Example 14.3]
[1]
  IC50: 57.4 nM

## C[C@@H](Nc1nc(-c2noc(=O)[nH]2)nc2nc(N3CCOC[C@@H]3C)n(C[C@H]3CC[C@H](C)CC3)c12)C1CCC1 [Example 11.66, 3-(6-{[(1R)-1-cyclobutylethyl]amino}-7-[(trans-4-methylcyclohexyl)methyl]-8-[(3S)-3-methylmorpholin-4-yl]-7H-purin-2-yl)-1,2,4-oxadiazol-5(4H)-one]
Table 11
  IC50: 5.8 nM

## Cc1cccc(-c2nc3nc(C(=O)O)nc(NC4CCCCC4)c3n2Cc2ccc(C(F)(F)F)cc2)c1 [Example 6.28, 6-(cyclohexylamino)-8-(3-methylphenyl)-7-[4-(trifluoromethyl)benzyl]-7H-purine-2-carboxylic acid]
Table 6
  IC50: 589 nM

## CC(C)C1CCCN1c1nc2nc(-c3noc(=O)[nH]3)nc(N[C@H](C)C3CCC3)c2n1Cc1ccc(C(F)(F)F)cc1 (stereo partly drawn) [Example 9.86, 3-(6-{[(1R)-1-cyclobutylethyl]amino}-8-[2-(1-methylethyl)pyrrolidin-1-yl]-7-[4-(trifluoromethyl)benzyl]-7H-purin-2-yl)-1,2,4-oxadiazol-5(4H)-one]
Table 9
  IC50: 10.2 nM

## C[C@H]1CC[C@H](Cn2c(S(=O)(=O)C3CCCC3)nc3nc(-c4n[nH]c(=O)o4)nc(-c4cncc(Cl)c4)c32)CC1 [Example 19.5, 5-{6-(5-chloropyridin-3-yl)-8-(cyclopentylsulfonyl)-7-[(trans-4-methylcyclohexyl)methyl]-7H-purin-2-yl}-1,3,4-oxadiazol-2(3H)-one]
Table 19
  IC50: 5.83 nM

## Cc1cccc(-c2nc3nc(C(=O)O)nc(N[C@H](CCC(N)=O)C4CCC4)c3n2Cc2ccc(C(F)(F)F)cc2)c1 [Example 7.12, 6-{[(1R)-4-amino-1-cyclobutyl-4-oxobutyl]amino}-8-(3-methylphenyl)-7-[4-(trifluoromethyl)benzyl]-7H-purine-2-carboxylic acid]
Table 7
  IC50: 55.3 nM

## C[C@@H](Nc1nc(-c2noc(=O)[nH]2)nc2nc(N3CCOC[C@H]3c3ccccc3)n(C[C@H]3CC[C@H](C)CC3)c12)C(F)(F)F [Example 11.53, 3-(7-[(trans-4-methylcyclohexyl)methyl]-8-[(3R)-3-phenylmorpholin-4-yl]-6-{[(1R)-2,2,2-trifluoro-1-methylethyl]amino}-7H-purin-2-yl)-1,2,4-oxadiazol-5(4H)-one]
Table 11
  IC50: 4.68 nM

## C[C@@H]1OCCN(c2nc3nc(-c4noc(=O)[nH]4)nc(-c4cncc(Cl)c4)c3n2C[C@H]2CC[C@H](C)CC2)[C@@H]1c1ccccc1 [Example 16.129, 3-{6-(5-chloropyridin-3-yl)-7-[(trans-4-methylcyclohexyl)methyl]-8-[(2S,3R)-2-methyl-3-phenylmorpholin-4-yl]-7H-purin-2-yl}-1,2,4-oxadiazol-5(4H)-one]
[1]
  IC50: 21.9 nM

## C[C@H]1CC[C@H](Cn2c(C3(c4ccccc4F)CC3)nc3nc(-c4noc(=O)[nH]4)nc(-c4cncc(Cl)c4)c32)CC1 [Example 23.100, 3-{6-(5-chloropyridin-3-yl)-8-[1-(2-fluorophenyl)cyclopropyl] -7-[(trans-4-methylcyclohexyl)methyl] -7H-purin-2-yl}-1,2,4-oxadiazol-5(4H)-one]
Table 23
  IC50: 5.94 nM

## C[C@@H]1OC(=O)N(c2nc3nc(-c4noc(=O)[nH]4)nc(-c4cccc(Cl)c4)c3n2C[C@H]2CC[C@H](C)CC2)[C@@H]1c1ccccc1 [Example 16.9, 3-(6-(3-chlorophenyl)-8-((4R,5S)-5-methyl-2-oxo-4-phenyloxazolidin-3-yl)-7-(((trans)-4-methylcyclohexyl)methyl)-7H-purin-2-yl)-1,2,4-oxadiazol-5(4H)-one]
[1]
  IC50: 3.01 nM
